{
  "source": "patent US8476246B2",
  "about": "“Combination of a chemotherapeutic agent and an inhibitor of the TGF-beta system” (Antisense Pharma GmbH, priority 2009, dated 2013)",
  "key": {"TGF-beta 2": {"system": "TGF-beta 2", "experiment": "TGF-beta 2 secretion of Hup-T3 cells (TGF-beta 2-ELISA of cell supernatants)", "format": "cell-based, human", "description": "After 7 days of total treatment, cell supernatants were removed and the TGF-beta 2 concentration was analyzed (see Example 4, and FIG. 4).\nThe effect of gemcitabine on TGF-beta 2 expression and secretion, respectively, was investigated on Hup-T3 cells. Gemcitabine was administered to the Hup-T3 cells in following concentrations: 5 μM, 0.5 μM, 50 nM, 5 nM, 0.5 nM, 0.05 nM or 0 nM, and the cells were incubated for 5 h according to Example 1. The treatment solution was optionally replaced after 3 days.\nAfter 7 days of treatment, cell supernatants were removed for the analysis of TGF-beta 2 concentration. The TGF-beta 2 secretion (Δ) was quantified by a standard TGF-beta 2-ELISA Kit (R&D Systems, Minneapolis, USA) according to the manufacturer's instructions.\nIn a further experiment the effect of the TGF-beta 2 antisense oligonucleotide on the expression and secretion, respectively, of TGF-beta 2 was investigated on Hup-T3 cells. The TGF-beta 2 antisense oligonucleotide, for example SEQ ID No. 30, was administered to the Hup-T3 cells as described in Example 1 (0 μM, 1 μM, 2.5 μM, 5 μM, 10 μM, 20 μM, 40 μM, 60 μM, or 80 μM TGF-beta 2 antisense oligonucleotide). The cells were incubated according to Example 1 and after 7 days of treatment, the cell supernatants were removed for the analysis of TGF-beta 2 concentration using the TGF-beta 2-ELISA Kit of R&D Systems.\nHup-T3 cells were incubated with different concentrations of gemcitabine (2 μM, 800 nM, 320 nM, 128 nM, 51.2 nM, 20.5 nM, 8.2 nM, and 0 nM) and TGF-beta 2 antisense oligonucleotide according to Example 1 (0 μM (▪), 5 μM (Δ), or 10 μM (•) TGF-beta 2 antisense oligonucleotide) and the cell supernatants were removed after 7 days of treatment for the analysis of TGF-beta 2 concentration using the TGF-beta 2-ELISA Kit of R&D Systems."}, "[1]": {"system": "gemcitabine-resistant human bladder cancer cells", "conditions": "cited from earlier work"}, "Hup-T3 cells": {"system": "Hup-T3 cells", "experiment": "Proliferation/viability of Hup-T3 cells (EZ4U method)", "format": "cell-based, human", "conditions": "gemcitabine 0.05 nM to 5 μM alone, 7 days, FIG. 2", "description": "In a 96-well tissue culture plate 4000 cells/well of a human pancreatic tumor cell line Hup-T3 (German Collection of Microorganisms and Cell Cultures GmbH, Braunschweig, Germany) were seeded. The Hup-T3 cell line is not resistant to gemcitabine. One day after seeding, cells were co-treated with […] different gemcitabine concentrations, i.e., 5 μM, 2 μM, 800 nM, 320 nM, 128 nM, 51.2 nM, 20.5 nM, 8.2 nM, 3.3 nM and 0 nM gemcitabine, respectively, in combination with 0 μM (▪), 5 μM (Δ) or 10 μM (∇) TGF-beta 2 antisense oligonucleotide, for example SEQ ID No. 30, for 5 h. […]\nThe proliferation/viability of the Hup-T3 cells was analyzed using the EZ4U method according to the manufacturer's instructions (Biozol Diagnostca Vertrieb GmbH), and the OD was measured after an incubation time of 75 min with EZ4U solution using the plate reader “Fluostar-Optima” (BMG LABTECH GmbH). […]\nThe proliferation/viability of the Hup-T3 cells (▪) was analyzed using the EZ4U method according to the manufacturer's instructions (Biozol Diagnostca Vertrieb GmbH), and the OD was measured after an incubation time of 75 min with EZ4U solution using the plate reader “Fluostar-Optima” (BMG LABTECH GmbH)."}, "A-172 cells": {"system": "A-172 cells", "experiment": "Cytotoxicity on A-172 cells (LDH release, CytoToxicity Detection Kit Plus)", "format": "cell-based", "conditions": "combination of temozolomide (200 or 800 μM) and 10 μM antisense oligonucleotide, 5 d", "description": "A-172 cells (about 7000 cells/well) were seeded into 48-well plates, and 6 h after seeding 0 μM, 200 μM, or 800 μM temozolomide either alone (grey column) or in combination with 10 μM of a TGF-beta 2 antisense oligonuclotide (black column), for example SEQ ID No. 30, was added to the cells. After 2 d of incubation, the treatment solutions were replaced and cells were incubated for additional 3 d (total treatment time: 5 d). […] The cells of the supernatant were lysed by addition of lysis solution for example from the CytoToxicity Detection Kit Plus (Roche Diagnostics GmbH) and the LDH levels were determined for example according to the manual of the kit."}, "MEL-Juso cells": {"system": "MEL-Juso cells", "experiment": "Proliferation/viability of MEL-Juso cells (Cyquant method)", "format": "cell-based, human", "conditions": "10 μM TGF-beta 2 antisense oligonucleotide in comparison to 0 μM, FIG. 5", "description": "In a 48-well tissue culture plate 10 000 cells/well of a human melanoma cell line MEL-Juso (CLS—Cell Lines Service, Eppelheim, Germany) were seeded. The MEL-Juso cell line is not resistant to temozolomide. Six hours after seeding, cells were co-treated with eight different temozolomid concentrations, i.e., 200 μM, 100 μM, 50 μM, 25 μM, 12.5 μM, 6.25 μM, 3.125 μM, and 0 μM temozolomide, respectively, in combination with 0 μM (▪), 5 μM (Δ) or 10 μM (∇) TGF-beta 2 antisense oligonucleotide, for example SEQ ID No. 30, for 2 days. Substances (temozolomide and TGF-beta 2 antisense oligonucleotide) were prepared in aqueous solution, stored at 4° C. and were used for 4 weeks. Thereafter the first treatment solution comprising temozolomidee and the TGF-beta 2 antisense oligonucleotide was removed and replaced by a second treatment solution containing the TGF-beta 2 antisense oligonucleotide and temozolomide in the above mentioned concentrations for further 2 days. […]\nThe proliferation/viability of the MEL-Juso cells was analyzed using the Cyquant method according to the manufacturer's instructions (Invitrogen), and the OD was measured after an incubation time of 60min with Cyquant solutions (detection reagent, direct nucleic acid stain, and direct nucleic acid background suppressor) using the plate reader “Fluostar-Optima” (BMG LABTECH GmbH)."}},
  "note": "Entries after “also recorded” stand apart in the source; their conditions may differ. Like-named read-outs stand apart in the source and are kept apart here.",
  "data": [
    {"compound": "Nc1ccn([C@@H]2O[C@H](CO)[C@@H](O)C2(F)F)c(=O)n1", "note": "[gemcitabine]", "values": [
      {"measurement": "effect of gemcitabine on TGF-beta 2 secretion", "setting": "TGF-beta 2; gemcitabine 0.05 nM to 5 μM, 7 days, FIG. 2", "result": "does not specifically influence the TGF-beta 2 secretion; also recorded: no specific influence"},
      {"measurement": "effect of gemcitabine on the suppression of TGF-beta 2 secretion by TGF-beta 2 antisense oligonucleotide", "setting": "TGF-beta 2; gemcitabine 8.2 nM to 2 μM with 5 or 10 μM antisense oligonucleotide, FIG. 4", "result": "does not impair the suppression of TGF-beta 2 secretion; also recorded: does not affect the inhibitory effect of the antisense oligonucleotide on its target"},
      {"measurement": "IC50", "setting": "[1]; gemcitabine-resistant cells chemosensitized with sCLU-2 antisense oligonucleotide", "result": 10, "unit": "nM"},
      {"measurement": "IC50", "setting": "[1]; gemcitabine-resistant cells, before sCLU-2 antisense oligonucleotide", "result": 100, "unit": "nM"},
      {"measurement": "effect of gemcitabine on proliferation and viability", "setting": "Hup-T3 cells", "result": "has a cytotoxic effect; also recorded: decreases at higher gemcitabine concentrations"}
    ]},
    {"compound": "CGGCATGTCTATTTTGTA (listed as DNA, chemistry not given here) [TGF-beta 2 antisense oligonucleotide]", "values": [
      {"measurement": "effect on TGF-beta 2 secretion in the presence of gemcitabine", "setting": "TGF-beta 2; 0, 5 or 10 μM antisense oligonucleotide, gemcitabine 8.2 nM to 2 μM, FIG. 4", "result": "inhibited TGF-beta 2 secretion in a dose dependent manner"},
      {"measurement": "effect on TGF-beta 2 secretion", "setting": "TGF-beta 2; antisense oligonucleotide 1 to 80 μM, no gemcitabine, 7 days, FIG. 3", "result": "inhibited the TGF-beta 2 expression and secretion, respectively, in a dose dependent manner; also recorded: dose dependent inhibitory effect"},
      {"measurement": "amount of released LDH", "setting": "A-172 cells", "result": "significantly increased"},
      {"measurement": "reduction of the IC50 of temozolomide (cytotoxicity)", "setting": "MEL-Juso cells", "result": "about 2 ×"}
    ]}
  ]
}
